Results on 31 compounds are retold here after patent publication US7816353B2 (Exelixis, Inc., priority 2003, dated 2010).

For this test, the target named is T1, p70S6K (Homo sapiens, UniProt P23443, T412E).
T1 construct: human p70S6 kinase domain residues 1-421, containing a T412E mutation; made in house
The experiment in a line: p70S6 Kinase Assay (Luciferase-Coupled Chemiluminescent Kinase assay, LCCA). The test is classed as biochemical. As to conditions: 5 μM ATP. On the procedure: Kinase activity and compound inhibition are investigated using one or more of the three assay formats described below. The ATP concentrations for each assay are selected to be close to the Michaelis-Menten constant (KM) for each individual kinase. Dose-response experiments are performed at 10 different inhibitor concentrations in a 384-well plate format. […] Y=Min+(Max−Min)/(1+(X/IC50)^H) Equation (2) p70S6 Kinase Assay
Biochemical activity of p70S6 kinase was assessed using a Luciferase-Coupled Chemiluminescent Kinase assay (LCCA) format. Kinase activity was measured as the percent ATP remaining following the kinase reaction. Remaining ATP was detected by luciferase-luciferin-coupled chemiluminescence. […] The mixture is incubated at ambient temperature for 2 hours after which 20 μL luciferase-luciferin mix is added and the chemiluminescent signal read using a Wallac Victor^2 reader.

Where [1] appears, read: human p70S6 kinase domain residues 1-421, T412E, read-out: p70S6K IC50.

Where two headings read alike, the source gives them in different places.

T1 sequence (P23443 1-421 T412E): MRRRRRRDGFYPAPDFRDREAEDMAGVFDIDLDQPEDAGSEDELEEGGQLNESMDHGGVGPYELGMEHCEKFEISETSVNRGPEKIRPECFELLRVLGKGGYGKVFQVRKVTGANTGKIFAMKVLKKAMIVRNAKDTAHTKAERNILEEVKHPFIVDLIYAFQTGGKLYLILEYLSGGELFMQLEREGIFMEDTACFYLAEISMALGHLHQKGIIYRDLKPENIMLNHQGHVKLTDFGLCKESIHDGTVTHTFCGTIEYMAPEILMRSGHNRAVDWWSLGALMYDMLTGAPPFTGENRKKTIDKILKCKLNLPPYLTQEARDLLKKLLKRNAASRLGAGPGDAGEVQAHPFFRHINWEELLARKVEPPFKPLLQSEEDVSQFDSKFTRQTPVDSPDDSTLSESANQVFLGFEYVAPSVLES

For `C[C@@H](C(=O)Nc1cccc(C(F)(F)F)c1)N(C)c1nc(N)nc([S+](C)[O-])c1C#N` (stereo partly drawn) [Example 118, N^2-[2-amino-5-cyano-6(methylsulfinyl)pyrimidin-4-yl]-N^2-methyl-N-[3-(trifluoromethyl)phenyl]-L-alaninamide], the concentration for half-maximal inhibition (IC50) under setting [1] was greater than 2000 nM.

As for `CSc1nc(N)nc(N2CCC[C@@H]2C(=O)Nc2cccc(C(F)(F)F)c2)c1C#N` [Example 85, (R)-1-[2-amino-5-cyano-6-(methylthio)pyrimidin-4-yl]-N-[3-(trifluoromethyl)phenyl]prolinamide], the IC50 under setting [1] was greater than 2000 nM.

Turning to `CSc1nc(N)nc(N[C@@H](C)c2nc3ccc(C(F)(F)F)cc3[nH]2)c1C#N` [Example 107, 2-amino-4-(methylthio)-6-({(1S)-1-[6-(trifluoromethyl)-1H-benzimidazol-2-yl]ethyl}amino)pyrimidine-5-carbonitrile], the IC50 under setting [1] is greater than 2000 nM.

Turning to `CCOc1nc(N)nc(N[C@@H](CCCCN(C)C)C(=O)Nc2cccc(C(F)(F)F)c2)c1C#N` [Example 156, N~2~-[2-amino-5-cyano-6-(ethyloxy)pyrimidin-4-yl]-N~6~,N~6~-dimethyl-N-[3-(trifluoromethyl)phenyl]-L-lysinamide], the IC50 under setting [1] was greater than 2000 nM.

`CSc1nc(N)nc(SCC(=O)Nc2cc(C(F)(F)F)ccc2N)c1C#N` [Example 62]: the IC50 under setting [1] was in the range of 500 to 2000 nM.

As to `COCCOC(=O)NCCC[C@H](Nc1nc(N)nc(SC)c1C#N)C(=O)Nc1cccc(C(F)(F)F)c1` [Example 126, 2-(methyloxy)ethyl ((4S)-4-{[2-amino-5-cyano-6-(methylthio)pyrimidin-4-yl]amino}-5-oxo-5-{[3-(trifluoromethyl)phenyl]amino}pentyl)carbamate], the IC50 under setting [1] is greater than 2000 nM.

Turning to `CCOc1nc(N)nc(N[C@@H](COC(C)=O)C(=O)Nc2cccc(C(F)(F)F)c2)c1C#N` [Example 164, (2S)-2-{[2-amino-5-cyano-6-(ethyloxy)pyrimidin-4-yl]amino}-3-oxo-3-{[3-(trifluoromethyl)phenyl]amino}propyl acetate], the half-inhibitory concentration (IC50) under setting [1] was greater than 2000 nM.

Take `CSc1nc(N)nc(NCC(=O)Nc2cccc(C(F)(F)F)c2)c1/C=N/O` [Example 59, N^2-[2-amino-5-[(E)-(hydroxymino)methyl]-6-(methylthio)pyrimidin-4-yl]-N-[3-(trifluoromethyl)phenyl]glycinamide]: under setting [1], the concentration for half-maximal inhibition (IC50) fell in the range of 500 to 2000 nM.

Regarding `CSc1nc(N)nc(N[C@@H](C)C(=O)Nc2cc(N)cc(C(F)(F)F)c2)c1C#N` [Example 94, N^2-[2-amino-5-cyano-6-(methylthio)pyrimidin-4-yl]-N-[3-amino-5-(trifluoromethyl)phenyl]-L-alaninamide], the IC50 under setting [1] was greater than 2000 nM.

As to `CSc1nc(N)nc(N[C@@H](CCCCNC(=O)OC(C)(C)C)C(=O)Nc2cccc(C(F)(F)F)c2)c1C#N` [Example 103, N^2-[2-amino-5-cyano-6-(methylthio)pyrimidin-4-yl]-N-6-{[(1,1-dimethylethyl)oxy]carbonyl}-N-[3-(trifluoromethyl)phenyl]-L-lysinamide], the IC50 under setting [1] was greater than 2000 nM.

Turning to `CSc1nc(N)nc(N[C@@H](CN2CCOCC2)C(=O)Nc2cccc(C(F)(F)F)c2)c1C#N` [Example 191, N~2~-[2-amino-5-cyano-6-(methylthio)pyrimidin-4-yl]-3-morpholin-4-yl-N-[3-(trifluoromethyl)phenyl]-L-alaninamide], under setting [1], the IC50 was greater than 2000 nM.

With `COc1nc(N)nc(N[C@@H](CCCNC(=O)OC(C)(C)C)C(=O)Nc2cccc(C(F)(F)F)c2)c1C#N` [Example 185, 1,1-dimethylethyl ((4S)-4-{[2-amino-5-cyano-6-(methyloxy)pyrimidin-4-yl]amino}-5-oxo-5-{[3-(trifluoromethyl)phenyl]amino}pentyl)carbamate], the IC50 under setting [1] is greater than 2000 nM.

On to `C[C@H](Nc1nc(N)nc(N[C@@H](C)C(=O)Nc2cccc(C(F)(F)F)c2)c1C#N)C(=O)Nc1cccc(C(F)(F)F)c1` [Example 108, 2-{2-amino-5-cyano-6[1-(3-trifluoromethyl-phenylcarbamoyl)-1S-ethylamino]-pyrimidin-4-ylamino}N-(3-trifluoromethyl-phenyl)-2S-propionamide], for which the IC50 under setting [1] was greater than 2000 nM.

`CCOc1nc(N)nc(N[C@@H](CCC(N)=O)C(=O)Nc2cccc(C(F)(F)F)c2)c1C#N` [Example 175, N~2~-[2-amino-5-cyano-6-(ethyloxy)pyrimidin-4-yl]-N~1~-[3-(trifluoromethyl)phenyl]-L-glutamamide]: the IC50 under setting [1] was greater than 2000 nM.

For `COCCN(CCC[C@H](Nc1nc(N)nc(SC)c1C#N)C(=O)Nc1cccc(C(F)(F)F)c1)CCOC` [Example 184, N~2~-[2-amino-5-cyano-6-(methylthio)pyrimidin-4-yl]-N~5~,N~5~-bis[2-(methyloxy)ethyl]-N-[3-(trifluoromethyl)phenyl]-L-ornithinamide], the IC50 under setting [1] is greater than 2000 nM.

For the compound `CSc1nc(N)nc(N[C@@H](C)C(=O)Nc2cc(C(=O)O)cc(C(F)(F)F)c2)c1C#N` [Example 145], the IC50 under setting [1] was 500 to 2000 nM.

Regarding `CSc1nc(N)nc(N(C)[C@@H](C)C(=O)Nc2cccc(C(F)(F)F)c2)c1C#N` [Example 91, N^2-[2-amino-5-cyano-6-(methylthio)pyrimidin-4-yl]-N^2-methyl-N-[3-(trifluoromethyl)phenyl]-L-alaninamide], the IC50 under setting [1] is greater than 2000 nM.

As to `CSc1nc(NC(C)=O)nc(N(C(C)=O)[C@@H](CCCNC(C)=O)C(=O)Nc2cccc(C(F)(F)F)c2)c1C#N` [Example 166, N~2~,N~5~-diacetyl-N~2~-[2-(acetylamino)-5-cyano-6-(methylthio)pyrimidin-4-yl]-N-[3-(trifluoromethyl)phenyl]-L-ornithinamide], the IC50 under setting [1] is greater than 2000 nM.

For the compound `CSc1nc(N)nc(N[C@@H](CCCNS(C)(=O)=O)C(=O)Nc2cccc(C(F)(F)F)c2)c1C#N` [Example 198, N~2~-[2-amino-5-cyano-6-(methylthio)pyrimidin-4-yl]-N~5~-(methylsulfonyl)-N-[3-(trifluoromethyl)phenyl]-L-ornithinamide], the IC50 under setting [1] was greater than 2000 nM.

Turning to `CCOc1nc(N)nc(N[C@@H](C)C(=O)Nc2cc(C(=O)NCCN3CCOCC3)cc(C(F)(F)F)c2)c1C#N` [Example 159, 3-({N-[2-amino-5-cyano-6-(ethyloxy)pyrimidin-4-yl]-L-alanyl}amino)-N-(2-morpholin-4-ylethyl)-5-(trifluoromethyl)benzamide], the IC50 under setting [1] was greater than 2000 nM.

Take `CCOc1nc(N)nc(N[C@@H](CCC(=O)OC)C(=O)Nc2cccc(C(F)(F)F)c2)c1C#N` [Example 170, Methyl N~2~-[2-amino-5-cyano-6-(ethyloxy)pyrimidin-4-yl]-N-[3-(trifluoromethyl)phenyl]-L-alpha-glutaminate]: the concentration for half-maximal inhibition (IC50) under setting [1] was greater than 2000 nM.

In the case of `CSc1nc(N)nc(SCC(=O)Nc2cc(C(F)(F)F)cc(C(F)(F)F)c2)c1C#N` [Example 77, 2-{[2-amino-5-cyano-6-(methylthio)pyrimidin-4-yl]thio}-N-[3,5-bis(trifluoromethyl)phenyl]acetamide], under setting [1], the IC50 was greater than 2000 nM.

With `CSc1nc(N)nc(N[C@@H](C)C(=O)Nc2cc(C(=O)NCCN(C)C)cc(C(F)(F)F)c2)c1C#N` [Example 125, 3-({N-[2-amino-5-cyano-6-(methylthio)pyrimidin-4-yl]-L-alanyl}amino)-N-[2-(dimethylamino)ethyl]-5-(trifluoromethyl)benzamide], the 50% inhibitory concentration (IC50) under setting [1] is greater than 2000 nM.

As for `CCOc1nc(N)nc(N[C@@H](CO)C(=O)Nc2cccc(C(F)(F)F)c2)c1C#N` [Example 150, N~2~-[2-amino-5-cyano-6-(ethyloxy)pyrimidin-4-yl]-N-[3-(trifluoromethyl)phenyl]-L-serinamide], under setting [1], the IC50 lay in the range of 500 to 2000 nM.

For the compound `COc1nc(N)nc(N[C@@H](C)C(=O)Nc2cc(OCCN(C)C)cc(C(F)(F)F)c2)c1C#N` [Example 179, N~2~-[2-amino-5-cyano-6-(methyloxy)pyrimidin-4-yl]-N-[3-{[2-(dimethylamino)ethyl]oxy}-5-(trifluoromethyl)phenyl]-L-alaninamide], under setting [1], the IC50 was greater than 2000 nM.

In the case of `Cc1nc2oc(C(=O)Nc3cccc(C(F)(F)F)c3)c(N)c2c(C)c1N` [Example 97, 3,5-diamino-4,6-dimethyl-N-[3-(trifluoromethyl)phenyl]furo[2,3-b]pyridine-2-carboxamide], under setting [1], the IC50 was greater than 2000 nM.

Regarding `CCCOc1nc(N)nc(N[C@@H](C)C(=O)Nc2cccc(C(F)(F)F)c2)c1C#N` [Example 115, N^2-[2-amino-5-cyano-6-(propyloxy)pyrimidin-4-yl]-N-[3-(trifluoromethyl)phenyl]-L-alaninamide], under setting [1], the IC50 fell in the range of 50 to 500 nM.

`CSc1nc(N)nc(N[C@@H](C)C(=O)Nc2cccc([N+](=O)[O-])c2)c1C#N` [Example 113, N^2-[2-amino-5-cyano-6-(methylthio)pyrimidin-4-yl]-N-(3-nitrophenyl)-L-alaninamide]: under setting [1], the concentration for half-maximal inhibition (IC50) is greater than 2000 nM.

With `CSc1nc(N)nc(NNC(=O)Nc2cccc(C(F)(F)F)c2)c1C#N` [Example 64, 2-[2-amino-5-cyano-6-(methylthio)pyrimidin-4-yl]-N-[3-(trifluoromethyl)phenyl]hydrazinecarboxamide], the IC50 under setting [1] lay in the range of 500 to 2000 nM.

In turn, `CSc1nc(N)nc(O[C@@H](C)C(=O)Nc2cccc(C(F)(F)F)c2)c1C#N` [Example 42, (2S)-2-{[2-amino-5-cyano-6-(methylthio)pyrimidin-4-yl]oxy}-N-[3-(trifluoromethyl)phenyl]propanamide] yielded an IC50 (p70S6K IC50, human p70S6 kinase domain residues 1-421, T412E) of 50 to 500 nM.

As for `C[C@H](Nc1nc(N)ncc1C#N)C(=O)Nc1cccc(C(F)(F)F)c1` [Example 90, N^2-(2-amino-5-cyanopyrimidin-4-yl)-N-[3-(trifluoromethyl)phenyl]-L-alaninamide], the IC50 under setting [1] is greater than 2000 nM.
